Results as given in article PMC8292346, “Dysfunction of the key ferroptosis-surveilling systems hypersensitizes mice to tubular necrosis during acute kidney injury” (Nature Communications, 2021).
Read-outs that look alike come from different tables or passages of the source.

What was measured:
μ (MOP) (h) = μ (MOP) (h) (Homo sapiens, UniProt P35372); assay: Off-target radioligand binding screen; settings: read-out: μ (MOP) (h) (#): inhibition of radioligand binding
[1] = Pharmacokinetic analysis of Nec-1f in mice (tissue PK); type: in vivo, C57BL/6 mice; settings: for concentration at 120 min: sample collection 120 min
[2] = sample collection 240 min, individual mice
[3] = sample collection 360 min, individual mice
[4] = sample collection 480 min, individual mice
[5] = sample collection 1440 min, individual mice

Sequence of μ (MOP) (h) (P35372 whole entry): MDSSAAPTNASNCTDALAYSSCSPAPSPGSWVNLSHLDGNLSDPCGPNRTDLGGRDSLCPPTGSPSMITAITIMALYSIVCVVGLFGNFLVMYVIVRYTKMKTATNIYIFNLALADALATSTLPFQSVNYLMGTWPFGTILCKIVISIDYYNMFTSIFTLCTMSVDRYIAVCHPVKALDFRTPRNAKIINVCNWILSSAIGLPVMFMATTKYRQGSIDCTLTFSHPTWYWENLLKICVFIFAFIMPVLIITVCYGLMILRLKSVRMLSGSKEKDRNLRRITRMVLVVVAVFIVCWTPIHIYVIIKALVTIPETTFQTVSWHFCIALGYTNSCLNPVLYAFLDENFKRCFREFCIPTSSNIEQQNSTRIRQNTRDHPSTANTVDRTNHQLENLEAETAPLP

CN1C(=O)C(Cc2c[nH]c3c(Cl)cccc23)NC1=S (stereo not shown) [Nec-1f]
11 ng/mL: concentration at 5 min ([1]; male, C57BL/6, mouse, brain, intraperitoneal, 2 mg/ml, brain, sample collection 5 min, individual mice, read-out: concentration in brain) | concentration at 120 min ([1]; male, C57BL/6, mouse, brain, intraperitoneal, 2 mg/ml, brain, individual mice, read-out: concentration in brain)
15.8%: inhibition at 10 µM (μ (MOP) (h))
3.52 h: half-life ([1]; male, C57BL/6, mouse, kidney, ip, mice, single i.p. injection 2 mg/kg)
0 ng/mL: concentration in blood [1, 2] | concentration in blood [1, 3] | concentration in blood [1, 4] | concentration in blood [1, 5] | concentration in brain ([1]; brain, sample collection 240 min, individual mice) | concentration in brain ([1]; brain, sample collection 360 min, individual mice) | concentration in brain ([1]; brain, sample collection 480 min, individual mice) | concentration in brain ([1]; brain, sample collection 1440 min, individual mice) | concentration in heart ([1]; heart, sample collection 0 min, individual mice) | concentration in heart ([1]; heart, sample collection 240 min, individual mice) | concentration in heart ([1]; heart, sample collection 360 min, individual mice) | concentration in heart ([1]; heart, sample collection 480 min, individual mice) | concentration in heart ([1]; heart, sample collection 1440 min, individual mice) | concentration in kidney ([1]; kidney, sample collection 0 min, individual mice) | concentration in kidney ([1]; kidney, sample collection 240 min, individual mice) | concentration in kidney ([1]; kidney, sample collection 360 min, individual mice) | concentration in kidney ([1]; kidney, sample collection 480 min, individual mice) | concentration in kidney ([1]; kidney, sample collection 1440 min, individual mice) | concentration in liver ([1]; liver, sample collection 0 min, individual mice) | concentration in liver ([1]; liver, sample collection 240 min, individual mice) | concentration in liver ([1]; liver, sample collection 360 min, individual mice) | concentration in liver ([1]; liver, sample collection 480 min, individual mice) | concentration in liver ([1]; liver, sample collection 1440 min, individual mice) | concentration in lung ([1]; sample collection 0 min, individual mice) | concentration in lung [1, 2] | concentration in lung [1, 3] | concentration in lung [1, 4] | concentration in lung [1, 5] | concentration at 240 min ([1]; male, C57BL/6, mouse, brain, intraperitoneal, 2 mg/kg, brain, sample collection 240 min, individual mice, read-out: concentration in brain) | concentration at 360 min ([1]; male, C57BL/6, mouse, brain, intraperitoneal, 2 mg/kg, brain, sample collection 360 min, individual mice, read-out: concentration in brain) | concentration at 480 min ([1]; male, C57BL/6, mouse, brain, intraperitoneal, 2 mg/kg, brain, sample collection 480 min, individual mice, read-out: concentration in brain) | concentration at 0 min ([1]; male, C57BL/6, mouse, brain, intraperitoneal, 2 mg/ml, brain, sample collection 0 min, individual mice, read-out: concentration in brain) | concentration at 1440 min ([1]; male, C57BL/6, mouse, brain, intraperitoneal, 2 mg/ml, brain, sample collection 1440 min, individual mice, read-out: concentration in brain) | concentration at 240 min ([1]; male, C57BL/6, mouse, heart, intraperitoneal, 2 mg/kg, heart, sample collection 240 min, individual mice, read-out: concentration in heart) | concentration at 360 min ([1]; male, C57BL/6, mouse, heart, intraperitoneal, 2 mg/kg, heart, sample collection 360 min, individual mice, read-out: concentration in heart) | concentration at 480 min ([1]; male, C57BL/6, mouse, heart, intraperitoneal, 2 mg/kg, heart, sample collection 480 min, individual mice, read-out: concentration in heart) | concentration at 1440 min ([1]; male, C57BL/6, mouse, heart, intraperitoneal, 2 mg/kg, heart, sample collection 1440 min, individual mice, read-out: concentration in heart) | concentration at 0 min ([1]; male, C57BL/6, mouse, heart, intraperitoneal, heart, sample collection 0 min, individual mice, read-out: concentration in heart) | concentration at 120 min ([1]; male, C57BL/6, mouse, heart, intraperitoneal, heart, individual mice, read-out: concentration in heart) | concentration at 240 min ([1]; male, C57BL/6, mouse, kidney, intraperitoneal, 2 mg/kg, kidney, sample collection 240 min, individual mice, read-out: concentration in kidney) | concentration at 360 min ([1]; male, C57BL/6, mouse, kidney, intraperitoneal, 2 mg/kg, kidney, sample collection 360 min, individual mice, read-out: concentration in kidney) | concentration at 480 min ([1]; male, C57BL/6, mouse, kidney, intraperitoneal, 2 mg/kg, kidney, sample collection 480 min, individual mice, read-out: concentration in kidney) | concentration at 1440 min ([1]; male, C57BL/6, mouse, kidney, intraperitoneal, 2 mg/kg, kidney, sample collection 1440 min, individual mice, read-out: concentration in kidney) | concentration at 0 min ([1]; male, C57BL/6, mouse, kidney, intraperitoneal, 2 mg/ml, kidney, sample collection 0 min, individual mice, read-out: concentration in kidney) | concentration at 120 min ([1]; male, C57BL/6, mouse, kidney, intraperitoneal, 2 mg/ml, kidney, individual mice, read-out: concentration in kidney) | concentration at 240 min ([1]; male, C57BL/6, mouse, liver, intraperitoneal, 2 mg/kg, liver, sample collection 240 min, individual mice, read-out: concentration in liver) | concentration at 360 min ([1]; male, C57BL/6, mouse, liver, intraperitoneal, 2 mg/kg, liver, sample collection 360 min, individual mice, read-out: concentration in liver) | concentration at 480 min ([1]; male, C57BL/6, mouse, liver, intraperitoneal, 2 mg/kg, liver, sample collection 480 min, individual mice, read-out: concentration in liver) | concentration at 1440 min ([1]; male, C57BL/6, mouse, liver, intraperitoneal, 2 mg/kg, liver, sample collection 1440 min, individual mice, read-out: concentration in liver)
23 ng/mL: concentration at 15 min ([1]; male, C57BL/6, mouse, brain, intraperitoneal, 2 mg/ml, brain, sample collection 15 min, individual mice, read-out: concentration in brain)
51 ng/mL: concentration at 30 min ([1]; male, C57BL/6, mouse, kidney, intraperitoneal, 2 mg/ml, sample collection 30 min, individual mice)
